Experimental data: BindingDB's records for doi:10.1016/j.bmc.2007.06.041 (Seoul National University, 2007)

Each compound was assayed against Transient receptor potential cation channel subfamily V member 1 (Rattus norvegicus, UniProt O35433) (assay: Competition Binding Assay and Inhibition of Ca2+ Uptake Assay). Conditions: pH 7.4; 37 °C.
Method: Binding assay mixtures were set up and contained [3H] RTX, various concentrations of competing ligands, and rVR1-transfected CHO cells. Nonspecific binding was determined in the presence of 100 nM nonradioactive RTX. After the binding reaction, membrane-bound RTX was separated from the free by centrifugation, and the radioactivity was determined by scintillation counting. Equilibrium binding parameters (Ki, Bmax, and cooperativity) were determined by fitting the Hill equation to the measured values with the aid of the program Origin 6.0.

Chain of Transient receptor potential cation channel subfamily V member 1 (O35433 whole entry): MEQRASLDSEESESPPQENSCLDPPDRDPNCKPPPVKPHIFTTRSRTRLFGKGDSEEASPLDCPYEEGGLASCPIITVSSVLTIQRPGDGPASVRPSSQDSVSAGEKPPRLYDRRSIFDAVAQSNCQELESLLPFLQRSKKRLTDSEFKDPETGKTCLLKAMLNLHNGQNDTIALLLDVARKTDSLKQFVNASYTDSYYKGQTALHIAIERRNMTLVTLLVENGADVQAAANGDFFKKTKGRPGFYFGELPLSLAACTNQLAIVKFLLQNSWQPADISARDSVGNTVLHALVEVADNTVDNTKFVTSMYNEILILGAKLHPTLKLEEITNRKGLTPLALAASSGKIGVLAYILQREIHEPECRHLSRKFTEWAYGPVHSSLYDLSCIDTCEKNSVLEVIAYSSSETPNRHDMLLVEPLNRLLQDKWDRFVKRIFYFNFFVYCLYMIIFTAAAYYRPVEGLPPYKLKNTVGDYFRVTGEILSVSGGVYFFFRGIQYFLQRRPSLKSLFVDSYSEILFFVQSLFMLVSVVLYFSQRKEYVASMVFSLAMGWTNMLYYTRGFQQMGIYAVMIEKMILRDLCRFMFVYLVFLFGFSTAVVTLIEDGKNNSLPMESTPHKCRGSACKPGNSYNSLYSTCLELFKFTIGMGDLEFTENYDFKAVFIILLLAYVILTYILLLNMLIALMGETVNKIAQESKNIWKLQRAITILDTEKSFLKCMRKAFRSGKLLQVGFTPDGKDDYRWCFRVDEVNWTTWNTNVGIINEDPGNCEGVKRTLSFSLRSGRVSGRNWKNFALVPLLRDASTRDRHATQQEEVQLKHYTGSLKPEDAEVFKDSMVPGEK

SMILES | Ki
Oc1cc2c(cc1O)CN(C(=S)NCCc1ccc(Cl)cc1)CCC2 [N-[2-(4-chlorophenyl)ethyl]-7,8-dihydroxy-2,3,4,5-tetrahydro-1H-2-benzazepine-2-carbothioamide] | 520 nM
CC(C)(C)c1ccc(CNC(=S)NC(c2ccccc2)c2ccc(NS(C)(=O)=O)c(F)c2)cc1 (configuration not stated) [3-[(4-tert-butylphenyl)methyl]-1-[(3-fluoro-4-methanesulfonamidophenyl)(phenyl)methyl]thiourea] | 860 nM
CC(C)(C)c1ccc(CNC(=S)NC2(c3ccc(NS(C)(=O)=O)cc3)CC2)cc1 [1-[(4-tert-butylphenyl)methyl]-3-[1-(4-methanesulfonamidophenyl)cyclopropyl]thiourea] | 60 nM
CCC(NC(=S)NCc1ccc(C(C)(C)C)cc1)c1ccc(NS(C)(=O)=O)c(F)c1 (configuration not stated) [3-[(4-tert-butylphenyl)methyl]-1-[1-(3-fluoro-4-methanesulfonamidophenyl)propyl]thiourea] | 54 nM
COc1cc(C2(NC(=S)NCc3ccc(C(C)(C)C)cc3)CC2)ccc1NS(C)(=O)=O [1-[(4-tert-butylphenyl)methyl]-3-[1-(4-methanesulfonamido-3-methoxyphenyl)cyclopropyl]thiourea] | 243 nM
CC(C)(C)c1ccc(CNC(=S)NC(C)(C)c2ccc(NS(C)(=O)=O)cc2)cc1 [3-[(4-tert-butylphenyl)methyl]-1-[2-(4-methanesulfonamidophenyl)propan-2-yl]thiourea] | 1800 nM
CC(C)(C)c1ccc(CNC(=S)NC(Cc2ccccc2)c2ccc(NS(C)(=O)=O)c(F)c2)cc1 (configuration not stated) [3-[(4-tert-butylphenyl)methyl]-1-[1-(3-fluoro-4-methanesulfonamidophenyl)-2-phenylethyl]thiourea] | 700 nM
C[C@@H](NC(=S)NCc1ccc(C(C)(C)C)cc1)c1ccc(NS(C)(=O)=O)c(F)c1 [3-[(4-tert-butylphenyl)methyl]-1-[(1R)-1-(3-fluoro-4-methanesulfonamidophenyl)ethyl]thiourea] | 37 nM
CC(NC(=S)NCc1ccc(C(C)(C)C)cc1)c1ccc(NS(C)(=O)=O)c(F)c1 (configuration not stated) [3-[(4-tert-butylphenyl)methyl]-1-[1-(3-fluoro-4-methanesulfonamidophenyl)ethyl]thiourea] | 9.2 nM
CC(C)(C)c1ccc(CNC(=S)NCc2ccc(NS(C)(=O)=O)c(F)c2)cc1 [JYL1421] | 9.2 nM
CC(NC(=S)NCc1ccc(C(C)(C)C)cc1)c1ccc(NS(C)(=O)=O)cc1 (configuration not stated) [3-[(4-tert-butylphenyl)methyl]-1-[1-(4-methanesulfonamidophenyl)ethyl]thiourea] | 14.7 nM
CC(C)C(NC(=S)NCc1ccc(C(C)(C)C)cc1)c1ccc(NS(C)(=O)=O)c(F)c1 (configuration not stated) [3-[(4-tert-butylphenyl)methyl]-1-[1-(3-fluoro-4-methanesulfonamidophenyl)-2-methylpropyl]thiourea] | 223 nM
C[C@@H](NC(=S)NCc1ccc(C(C)(C)C)cc1)c1ccc(NS(C)(=O)=O)cc1 [3-[(4-tert-butylphenyl)methyl]-1-[(1R)-1-(4-methanesulfonamidophenyl)ethyl]thiourea] | 4.5 nM
CC(C)(C)c1ccc(CNC(=S)NC(C)(C)c2ccc(NS(C)(=O)=O)c(F)c2)cc1 [3-[(4-tert-butylphenyl)methyl]-1-[2-(3-fluoro-4-methanesulfonamidophenyl)propan-2-yl]thiourea] | 980 nM
COc1cc(C(C)NC(=S)NCc2ccc(C(C)(C)C)cc2)ccc1NS(C)(=O)=O (configuration not stated) [3-[(4-tert-butylphenyl)methyl]-1-[1-(4-methanesulfonamido-3-methoxyphenyl)ethyl]thiourea] | 28.6 nM
COc1cc(C(C)(C)NC(=S)NCc2ccc(C(C)(C)C)cc2)ccc1NS(C)(=O)=O [3-[(4-tert-butylphenyl)methyl]-1-[2-(4-methanesulfonamido-3-methoxyphenyl)propan-2-yl]thiourea] | 663 nM
C[C@H](NC(=S)NCc1ccc(C(C)(C)C)cc1)c1ccc(NS(C)(=O)=O)c(F)c1 [3-[(4-tert-butylphenyl)methyl]-1-[(1S)-1-(3-fluoro-4-methanesulfonamidophenyl)ethyl]thiourea] | 2670 nM
